From patent US6737433B1, “1-N-phenylamino-1H-imidazole derivatives as aromatase inhibitors and pharmaceutical compositions containing them” (Laboratoire Theramex, priority 2002, dated 2004)

Experiments:
[1] = target: T1, human aromatase (Homo sapiens, UniProt P11511); assay: Inhibition of human aromatase in vitro in JEG-3 cells (3H-water release from 1β-3H-androstenedione); format: cell-based; details: 10 nM 1β-3H-androstenedione, 2 h incubation
T1 construct: The JEG-3 cell line, derived from a human placental choriocarcinoma, is intrinsically very rich in human aromatase; endogenous in cells; host or cells: JEG-3 (human placental choriocarcinoma)
T1 sequence (P11511 1-503): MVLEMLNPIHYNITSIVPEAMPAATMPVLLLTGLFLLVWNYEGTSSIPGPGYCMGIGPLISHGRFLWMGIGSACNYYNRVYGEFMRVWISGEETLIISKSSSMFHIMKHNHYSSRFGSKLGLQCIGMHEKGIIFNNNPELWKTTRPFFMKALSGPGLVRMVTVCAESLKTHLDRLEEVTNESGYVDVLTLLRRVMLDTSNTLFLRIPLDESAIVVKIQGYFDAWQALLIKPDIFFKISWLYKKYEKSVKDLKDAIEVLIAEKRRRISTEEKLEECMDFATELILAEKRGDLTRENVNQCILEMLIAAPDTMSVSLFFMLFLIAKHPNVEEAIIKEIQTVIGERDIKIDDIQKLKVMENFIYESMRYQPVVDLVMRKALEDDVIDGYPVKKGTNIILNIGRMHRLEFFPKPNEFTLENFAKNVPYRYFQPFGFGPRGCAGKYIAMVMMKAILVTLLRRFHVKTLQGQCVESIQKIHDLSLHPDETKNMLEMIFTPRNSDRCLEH
Description: Stocks of JEG-3 cells are grown up to 80% of confluence as monolayers in plastic flasks in minimum Eagle's medium with 1 g/l glucose and 10% decomplemented fetal calf serum at pH 7.4 and 37° C., under a 5% CO2 atmosphere. Then, 24 hours before aromatase activity measurement, JEG-3 cells are distributed for seeding in 96-well microplates (60,000 to 100,000 viable cells in 100 μl of culture medium per well); 24 hours later, microplates are rinsed and fresh medium containing the radioactive aromatase substrate (1β-^3H-androstenedione, 10 nM) is added together with test compounds dissolved with 1% dimethylsulfoxyde in a test concentration range between 10^−11 and 10^−4 M in a total volume of 150 μl.
Two hours after the beginning of the incubation, 100 μl of the supernatants are transferred to homologous new 96-well microplates. A solution of dextran-coated charcoal (1%) is added in each well (100 μl/well); after standing for 10 minutes on ice, microplates are centrifuged (1500 g) for 10 more minutes at 4° C. All steroids, including the radioactive substrate and the newly biosynthesized estrogens, are trapped complexed by the charcoal; only the ^3H-water specifically formed during aromatisation of 1β-^3H-androstenedione, involving a specific oxidative step removing the 1β-^3H, remains in the supernatant at this stage.
Finally, aromatase activity is expressed in fmoles/μg DNA in 2 hours and aromatase inhibition in percentage of control incubation without inhibitors.

| Structure (SMILES) | IC50 [1] | melting point |
| --- | --- | --- |
| N#Cc1ccc(CN(c2ccc(C#N)cc2C(F)(F)F)n2ccnc2)cc1 [Example 23, 4-[N-(1H-imidazol-1-yl)-N-(4-cyanophenylmethyl)amino]-3-trifluoromethylbenzonitrile] | 0.48 ± 0.13 nM | 226 °C |
| COc1ccc(CN(c2ccc(C#N)cc2)n2ccnc2)cc1F [Example 9, 4-[N-(1H-imidazol-1-yl)-N-(3-fluoro-4-methoxyphenylmethyl)amino]benzonitrile] | 0.16 ± 0.06 nM |  |
| Cn1nnc2ccc(N(Cc3ccc(C#N)cc3)n3ccnc3)cc21 [Example 22, 4-[N-(1-methylbenzotriazol-6-yl)-N-(1H-imidazol-1-yl)aminomethyl]benzonitrile] | 0.2 ± 0.05 nM | 184 °C |
| Cc1cn(N(Cc2ccc(Br)cc2)c2ccc(C#N)cc2)cn1 [Example 30, 4-[N-(4-methyl-1H-imidazol-1-yl)-N-(4-bromophenylmethyl)amino]benzonitrile] | 1.16 ± 0.55 nM | 152 °C |
| Cc1cncn1N(Cc1ccc(Br)cc1)c1ccc(C#N)cc1 [Example 31, 4-[N-(5-methyl-1H-imidazol-1-yl)-N-(4-bromophenylmethyl)amino]benzonitrile] | 0.58 ± 0.18 nM | 152 °C |
| N#Cc1ccc(N(Cc2ccc(F)cc2F)n2ccnc2)cc1 [Example 18, 4-[N-(1H-imidazol-1-yl)-N-(2,4-difluorophenylmethyl)amino]benzonitrile] | 0.14 ± 0.01 nM | 149 °C |
| COc1ccc(CN(c2ccc(C#N)cc2)n2ccnc2)cc1 [Example 8, 4-[N-(1H-imidazol-1-yl)-N-(4-methoxyphenylmethyl)amino]benzonitrile] | 0.14 ± 0.05 nM |  |

The next lines start with the values.

| IC50 [1] | melting point | Structure (SMILES) |
| --- | --- | --- |
| 0.22 ± 0.05 nM |  | N#Cc1ccc(N(Cc2ccc(Br)cc2)n2ccnc2)cc1 [Example 20, 4-[N-(1H-imidazol-1-yl)-N-(4-bromophenylmethyl)amino]benzonitrile] |
| 0.44 ± 0.04 nM |  | N#Cc1ccc(N(c2ccc(C#N)cc2)n2ccnc2)cc1 [Example 13, 4,4′-[N-(1H-imidazol-1-yl)amino]bis-benzonitrile] |
| 0.66 ± 0.14 nM | 166 °C | N#Cc1ccc(N(c2ccc(C#N)cc2C(F)(F)F)n2ccnc2)cc1 [Example 25, 4-[N-(1H-imidazol-1-yl)-N-(4-cyanophenyl)amino]-3-trifluoromethylbenzonitrile] |
| 0.21 ± 0.05 nM | 128 °C | CSc1ccc(CN(c2ccc(C#N)cc2)n2ccnc2)cc1 [Example 15, 4-[N-(1H-imidazol-1-yl)-N-(4-methylthiophenylmethyl)amino]benzonitrile] |
| 0.13 ± 0.05 nM | 112 °C | N#Cc1ccc(N(Cc2cccc(F)c2)n2ccnc2)cc1 [Example 26, 4-[N-(1H-imidazol-1-yl)-N-(3-fluorophenylmethyl)amino]benzonitrile] |
| 0.14 ± 0.03 nM | 156 °C | Cc1ccc(CN(c2ccc(C#N)cc2)n2ccnc2)cc1 [Example 10, 4-[N-(1H-imidazol-1-yl)-N-(4-methylphenylmethyl)amino]benzonitrile] |
| 1.12 ± 0.55 nM | 138 °C | N#Cc1ccc(CN(c2ccc(Br)cc2)n2ccnc2)cc1 [Example 21, 4-[N-(1H-imidazol-1-yl)-N-(4-bromophenyl)aminomethyl]benzonitrile] |
| 0.35 ± 0.07 nM |  | CS(=O)(=O)c1ccc(CN(c2ccc(C#N)cc2)n2ccnc2)cc1 [Example 16, 4-[N-(1H-imidazol-1-yl)-N-(4-methylsulfonylphenylmethyl)amino]benzonitrile] |
| 0.18 ± 0.09 nM | 107 °C | N#Cc1ccc(N(Cc2ccccc2)n2ccnc2)cc1 [Example 24, 4-[N-(1H-imidazol-1-yl)-N-(phenylmethyl)amino]benzonitrile] |
| 0.54 ± 0.26 nM |  | N#Cc1ccc(N(c2ccc(C(F)(F)F)cc2)n2ccnc2)cc1 [Example 5, 4-[N-(1H-imidazol-1-yl)-N-(4-trifluoromethylphenyl)amino]benzonitrile] |
